Data taken from patent US20130225629A1, “TARGETING PI3K/MTOR SIGNALLING AND NEUTROPHIL RECRUITMENT FOR TREATMENT OF ENTERITIS” (THE UNIVERSITY OF NORTH CAROLINA AT CHAPEL HILL, priority 2012, published 2013).

Assays:
p70S6 kinase (T389) = assay: Western blot of colonic p70S6K phosphorylation in C. jejuni infected mice; assay type: in vivo; conditions: AS252424 10 mg/kg i.p. daily, 6 days
Experimental: (§1) Whole tissues were lysed in Laemmli buffer and 20 μg of protein was separated by SDS-PAGE, transferred to nitrocellulose membranes and protein detected using enhanced chemiluminescence reaction (ECL) as described previously. (Lippert et al., 2009). Primary antibodies used were phospho-p70S6K (T389) and p70S6K (Cell Signaling, Danvers, Mass., United States of America), EGFP (Sigma, St. Louis, Mo., United States of America), LC3 I/II (MBL) and Actin.
(§2) A segment of the distal colon was lysed in 300 μl Laemmli buffer, homogenized and heated at 95° C. for 5 min. 20 μg of total protein were separated by SDS-PAGE and transferred to nitrocellulose membranes. Targeted protein was detected using enhanced chemiluminescence reaction (ECL) as described previously (Muhlbauer et al., 2008). Primary antibodies used were phosphor-AKT (S473), phosphor-p70S6K (T389), total AKT (all from Cell Signaling, Danvers, Mass., United States of America) and EGFP (Sigma, St. Louis, Mo., United States of America). The density of Western blot bands was quantified using ImageJ and data were normalized to total AKT control.

AKT (S473) = assay: Western blot of AKT phosphorylation in colonic lysates of C. jejuni infected mice; assay type: in vivo; conditions: AS252424 10 mg/kg i.p. daily, 6 days
Experimental: as §2

NF-κB = assay: NF-κB-driven EGFP expression in colon (macroimaging, Western blot, confocal); assay type: in vivo; conditions: AS252424-treated vs vehicle-treated mice
Experimental: as §1
II10^−/−; NF-κB^EGFP mice were sacrificed; the colon was dissected and immediately imaged using a charge-coupled device camera in a light-tight imaging box with a dual-filtered light source and emission filters specific for EGFP (LT-99D2 Illumatools; Lightools Research, Encinitas, Calif., United States of America). For microimaging, colonic segments were cut open and fixed in 4% paraformaldehyde overnight at 4° C., and then permeabilized in 2% triton overnight at 4° C. The tissues were then immersed in FocusClear (CelExplorer labs) and then stained with DAPI. […]
A segment of the distal colon was lysed in 300 μl Laemmli buffer, homogenized and heated at 95° C. for 5 min. […] Targeted protein was detected using enhanced chemiluminescence reaction (ECL) as described previously (Muhlbauer et al., 2008). […] The density of Western blot bands was quantified using ImageJ and data were normalized to total AKT control. […]

II1β mRNA = assay: Real-time RT-PCR of colonic II1β mRNA; assay type: in vivo, mice; conditions: AS252424 vs vehicle treated infected mice
Experimental: Total RNA from colonic tissue was extracted using TRIzol® kit (Invitrogen, Carlsbad, Calif., United States of America). Complementary DNA was prepared using M-MLV (Invitrogen). Messenger RNA levels of proinflammatory genes were determined using SYBR® Green PCR Master Mix (Applied Biosystems, Carlsbad, Calif., United States of America) on an ABI 7900HT Fast Real-Time PCR System and normalized to Gapdh. The polymerase chain reactions were performed according to the manufacturer's recommendation. The following gene primers were used: Gapdh_forward: 5′-[…]-3′ (SEQ ID NO: 2), Gapdh_reverse: 5′-[…]-3′ (SEQ ID NO: 3), II-1_forward: 5′-[…]-3′ (SEQ ID NO: 4), II-1_reverse: 5′-[…]-3′ (SEQ ID NO: 5), Cxcl2_forward: 5′-[…]-3′ (SEQ ID NO: 6), Cxcl2_reverse: 5′-[…]-3′ (SEQ ID NO: 7), II-17a_forward: 5′-[…]-3′ (SEQ ID NO: 8), II-17a_reverse: 5′-[…]-3′ (SEQ ID NO: 9), II12p40_forward: […] (SEQ ID NO: 10), II12p40_reverse: […] (SEQ ID NO: 11), Tnf forward: […] (SEQ ID NO: 12), Tnf reverse: […] (SEQ ID NO: 13).
Total RNA from intestinal tissues was extracted using TRIzol® kit (Invitrogen, Carlsbad, Calif., United States of America) following the manufacture's guide. cDNA was reverse-transcribed using M-MLV (Invitrogen). Proinflammatory 111β, Cxcl2, II17a and Tnfα mRNA expression levels were measured using SYBR® Green PCR Master mix (Applied Biosystems, Carlsbad, Calif., United States of America) on an ABI 7900HT Fast Real-Time PCR System and normalized to Gapdh. The PCR primers used were reported previously. (Sun et al., 2012). The PCR reactions were performed for 40 cycles according to the manufacturer's recommendation, and RNA fold changes were calculated using the ΔΔct method.

O=C1NC(=O)/C(=C/c2ccc(-c3ccc(F)cc3O)o2)S1 [AS252424]
attenuation of p70S6K phosphorylation (T389) in colonic extracts (p70S6 kinase (T389)): 34% | AKT phosphorylation (S473) in colonic extracts (AKT (S473)): modest reduction | induction of EGFP expression (NF-κB activity) in the colon (NF-κB): reduced | block of C. jejuni-induced I11β mRNA accumulation (II1β mRNA): 77%
